# Reference: patent US20090274739A1, “METHODS AND COMPOSITIONS FOR TREATING NEOINTIMAL HYPERPLASIA” (THE TRUSTEES OF COLUMBIA UNIVERSITY IN THE CITY OF NEW YORK, priority 2006, published 2009)
# Entries after “also recorded” stand apart in the source; their conditions may differ.
# Columns and labels:
# [1] = system: primary murine aortic vascular smooth muscle cells (VSMC); assay: VSMC proliferation assay (Coulter counter / MTS-based); type: cell-based, mouse
# Method: The methods used in the above experiments were as follows: Cell Culture and VSMC Proliferation Assays. Primary VSMC were isolated from aortic explants of wildtype, ob/ob, or db/db mice in the method of Roque et al. 30. VSMC were routinely cultured in Dulbecco's Modified Eagle's Medium (DMEM) containing either 4500 or 1250 mg/L glucose supplemented with 20% FBS at 37° C. in a 5% CO2 incubator. […] Cells were plated at 200,000 cells/ well of a 6 well dish and subsequently serum starved for 72 hr in DMEM media supplemented with 0.1 % FBS. Leptin dissolved in PBS was added directly to serum-free media at concentrations of 1, 10, or 100 ng/ml with […] LY294002 or U0126, and cells were grown for another 72 hr before harvesting. VSMC proliferation was measured by counting samples using a Coulter counter or using the Cell Titre 96 Aqueous One Solution Cell Proliferation Assay kit (Promega). Cell viability was assessed by Trypan Blue staining.
# Proliferation of VSMCs: VSMC proliferation was measured by counting triplicate samples using a Coulter counter or using the CellTitier 96 Aqueous One Solution Cell Proliferation Assay (Promega, Madison, Wis.) kit per manufacturer's instructions. Cell viability was assessed via staining with Trypan Blue.
# Murine VSMCs (2×10^4 cells/well) were incubated in a 6-well tissue culture plate for 72 hours in DMEM containing 0.1% FBS with or without insulin (10 or 100 nmol/L) and with 0, 1, 10, or 100 nmol/L rapamycin. Triplicate samples were counted using a Coulter counter and were normalized as percentage of the control group. Cell viability was checked via Trypan blue staining.
# Murine VSMCs, seeded 2×10^4 cells/well in a 6-well plate, were starved for 72 hrs in DMEM with 0.1% FBS. Rapamycin, leptin, or insulin in different concentrations indicated in the figure were incubated with VSMCs in DMEM with 0.1% of FBS for 72 hrs. Triplicate samples were counted via a Coulter counter. Cell viability was checked via Trypan blue staining. […] In panel C, VSMCs were exposed to U0126, a specific MEK1/2 inhibitor, or LY294002, a specific PI3K inhibitor.
# Primary VSMC were isolated from aortic explants of WT, ob/ob, or db/db mice (46). VSMC proliferation was determined using the Cell Titre Aqueous One Solution Proliferation Assay (Promega, Madison, Wis.). Migration to PDGF-BB was assessed in a modified Boyden chamber assay (47).
# [2] = system: murine femoral artery wire injury model (neointimal hyperplasia); assay: Femoral artery wire injury model, morphometry of neointimal formation; type: in vivo, mouse; set-up: Lumen / Media / Intima / TVA (total vessel area): unit not given here
# Description: Animal Models and Drug Treatments. Wild type C57BL/6J background mice and mice deficient for leptin (C57BL/6J-Lepob; ob/ob) or the leptin receptor (C57BL/6J-m+/+Lepdb; db/db) were purchased from Charles Jackson Laboratories, Maine. Mice were obtained at ages 6-8 weeks old and average weight 15 g. Animals were fed standard rodent chow and tap water ad libitum. Procedures and animal care were approved by the Institutional Animal Care and Use Committee. Mice were subjected to femoral artery wire injury or sham injury described below 24 hr prior to starting pharmacological treatments. Sirolimus was administered by intraperitoneal injection once per day for 14 days as a suspension in 0.2% sodium carboxymethyl cellulose and 0.25% polysorbate-80; duplicate experiments were accomplished with 0.5% DMSO. Leptin or LY294002 was administered by intraperitoneal injection once per day for 14 days as a suspension in PBS. Plasma leptin levels were measured at baseline, 3, 6, and 10 hr after leptin injection using an ELISA assay (R&D). Leptin plus the vehicle used for both sirolimus and LY294002 was used as the control group for the treatment groups with sirolimus and LY294002. After the 2-week treatment, animals were processed for femoral artery morphometry.
# Femoral Artery Injury Model. Endoluminal injury of bilateral femoral arteries was performed according to the method of Roque et al. with minor modification 27. […] Briefly, to denude and dilate femoral arteries, a 0.014″ angioplasty guidewire (Guidant) was passed endoluminally 3 times to the level of the aortic bifurcation. A sham protocol was performed where the arteries underwent dissection, clamping, and ligature without passage of the guidewire.
# Computer-aided quantitative morphometry to measure luminal, medial, intimal, and vessel areas were performed as previously described 27 with minor modification. Mice were euthanized via CO2 asphyxiation prior to en bloc excision of hind limbs. Briefly, multiple segments of the common femoral artery at the level of injury were fixed in 10% Zinc Formalin, embedded in paraffin, sectioned at […] thickness, and subjected to Elastic-Van Gieson staining at a Columbia University Core Histology facility. In many cases, arteries underwent immunohistochemical staining for smooth muscle a-actin to highlight the media and neointima. Photomicrographs were captured on Adobe Photoshop 7.0 and transferred to Scion Image software for quantitative analysis. Specimens were analyzed by two independent operators blinded to the treatment groups. Microsoft Excel software was used to calculate the RNI values from I/M ratios in the absence and presence of pharmacological inhibitors, as detailed in the text.
# Surgical Procedures: The mouse femoral artery wire injury model of was used with minor modifications (Roque M, et al., Arterioscler Thromb Vasc Biol, 2000, 20(2):335-42). Briefly, forty-two male mice were studied. Endoluminal injury to the common femoral artery was produced by either 3 passages of a 0.014″ diameter angioplasty guidewire (Guidant, Santa Clara, Calif.). […] While being viewed under a surgical microscope, a groin incision was made and the femoral artery was isolated and temporarily clamped distal to the inguinal ligament. An arteriotomy was performed and the guidewire was passed 3 times to the level of the aortic bifurcation. The artery was then ligated proximal to the arteriotomy. A sham protocol was carried out on the contralateral side where the arteries underwent dissection, temporary clamping, and ligature, without passage of the wire. The formation of the neointima was confirmed in this model as being comprised mainly of VSMCs through immunohistochemical staining of representative sections for α-smooth muscle actin via a commercial kit (Sigma).
# For all treatment protocols, rapamycin was administered by intraperitoneal injection once per day, for 14 days, as a suspension in 0.2% sodium carboxymethyl cellulose and 0.25% polysorbate-80. […]
# [3] = system: Akt Thr-308 phosphorylation; assay: Akt Thr-308 phosphorylation in descending aorta homogenates after i.p. treatment; type: in vivo; settings: Mus musculus, ip, 168 h; LY294002 1.2 mg/kg/day i.p., 7 days; read-out: inhibition of basal Thr-308 phosphorylation of Akt in descending aortas
# Description: Animals were processed for femoral artery morphometry after the 14-day drug treatments. For assessing LY294002 efficacy in vivo, descending aortas from mice treated with LY294002 or vehicle were harvested after 7 days of treatment; 3-4 aortas were pooled for immunoblot assessment of Akt phosphorylation.
# [4] = system: primary murine aortic vascular smooth muscle cells (VSMC); assay: VSMC proliferation assay (Coulter counter / MTS-based); type: cell-based, mouse; settings: Example 5; 6 nM leptin; inhibitor 10 μM
# [5] = system: cultured porcine coronary arteries; settings: LY294002 10 μM; cited from earlier work
# [6] = wire injury + leptin 0.4 mg/kg, LY 1.2 mg/kg daily i.p. 14 days, mean ± SD
smiles,measurement,setting,value
"O=c1cc(N2CCOCC2)oc2c(-c3ccccc3)cccc12 [LY294002, 2-(4-morpholinyl)-8-phenyl-4H-1-benzopyran-4-one]",effect on leptin-induced proliferation of murine VSMC,"[1]; Example 1, 100 ng/mL leptin, inhibitor 10 mM, 72 hr",did inhibit
same,VSMC proliferation induced by leptin and insulin,[1]; LY294002 compared with 100 nmol/L rapamycin alone,more pronounced effect
same,inhibition of leptin-induced neointimal formation,"[2]; LY294002 1.2 mg/kg/d alone, leptin 0.4 mg/kg/d, 14 days",partially inhibited; also recorded: not the LY294002 alone group revealed a complete inhibition
same,relative neointimal inhibition (RNI),"[2]; LY294002 1.2 mg/kg, leptin 0.4 mg/kg",0.70
same,I/M (intima:media ratio),[2]; [6],0.574 ± 0.186
same,Intima,[2]; [6],0.010 ± 0.003
same,Lumen,[2]; [6],0.013 ± 0.002
same,Media,[2]; [6],0.020 ± 0.003
same,TVA (total vessel area),[2]; [6],0.044 ± 0.006
same,inhibition at 1.2 mg/kg/day,[3],> 80%
same,effect on leptin-induced VSMC proliferation,[4],inhibited
same,neointimal hyperplasia in cultured porcine coronary arteries,[5],prevents neointimal hyperplasia
